Reference: patent publication US11801252B2, “Pharmaceutical composition” (Jiangsu Hengrui Medicine Co., Ltd., priority 2021, dated 2023)
Read-outs that look alike come from different tables or passages of the source.

Legend:
[1] = In vivo food effects study in healthy subjects (Test Example 3); set-up: species or system human (healthy male subjects); conditions: after Test Formulation 300 mg single oral; for AUC—% Extrap of SNAC / CLz/F of SNAC / λz of SNAC: healthy male subjects, Mean ± SD; for AUC(0-t) / AUC(0-inf) / Cmax / MRT last / MRT inf / Vd/F / half-life / Tmax: male, human, plasma, po, 300 mg; for AUC(0-t): read-out: AUC0-t of SNAC; for AUC(0-inf): read-out: AUC0-∞ of SNAC; for Cmax: read-out: Cmax of SNAC; for MRT last: read-out: MRT0-t of SNAC; for MRT inf: read-out: MRT0-∞ of SNAC; for Vd/F: read-out: Vz/F of SNAC; for half-life: read-out: t1/2 of SNAC (converted); for Tmax: read-out: Tmax of SNAC
From the text: To study the effect of food on the pharmacokinetic characteristics of abiraterone acetate tablets through a single oral administration of abiraterone acetate tablets under fasting state or after meal, or a single oral administration of abiraterone acetate tablets (Zytiga®) produced by Patheon Inc. under modified fasting state, in healthy subjects.
A single-center, randomized, open-label, three-period, self-controlled crossover trial design was applied. A total of 24 healthy male subjects were planned to be enrolled in the study. The washout period between each dose group was seven days. Blood samples were collected at a series of time points, and safety test was performed. The HPLC-MS/MS method was used to determine the plasma concentration of abiraterone and SNAC at different time points after drug administration. The non-compartmental model was used to calculate the pharmacokinetic parameters, and statistical analysis was performed.
The subjects were orally administered a single dose of the test formulation (T) under fasting state at a dose of 300 mg (150 mg×2 tablets), a single dose of the test formulation (T) of 300 mg abiraterone acetate tablets (I) (150 mg×2 tablets) after a high-fat meal (the total calories were approximately 800˜1,000 kcal, wherein approximately 50% of the calories were derived from fat; the test meal of each test cycle for the postprandial administration should be consistent; a high-fat meal was given 30 minutes before drug administration and should be finished within 30 minutes), or a single dose of the reference preparation of 1,000 mg abiraterone acetate tablets (Zytiga®) (250 mg×4 tablets) under modified fasting state (a medium-fat meal was given two hours before drug administration and one hour after drug administration; the total calories were approximately 450 kcal wherein 30% of the calories were derived from fat; the meal should be finished within 30 minutes), with 240 mL of warm water, in the morning on the day of drug administration for each cycle. Liquid was prohibited before administration and one hour after drug administration, and a standard lunch and dinner (a standardized light diet) were given approximately 4 and 10 hours after drug administration. The drug was swallowed whole instead of being sucked or chewed.
Test Formulation (T): Abiraterone acetate tablets (Formulation 5), specification: 150 mg;
Reference Preparation (R): Abiraterone Acetate Tablets; produced by Patheon Inc.; trade name: Zytiga®; specification: 250 mg.
The PKPS was used for the statistical analysis of pharmacokinetic parameters.
With the dosing order, dosing cycle and dosing regimen as fixed effects, the subjects were included as random effects in the linear mixed model as random effects. The least-squares mean ratio of Cmax, AUC0-t and AUC0-∞ of abiraterone in plasma after oral administration of the test formulation T under a high-fat meal or fasting states, and its 90% confidence interval were calculated.
With the dosing orders, dosing cycle and dosing regimen as fixed effects, the subjects were included as random effects in the linear mixed model. The least-squares mean ratio of Cmax, AUC0-t and AUC0-∞ of abiraterone in plasma after oral administration of the test formulation T under a high-fat meal and oral administration of the reference formulation R under modified fasting states, and its 90% confidence interval were calculated.

[2] = In vivo pharmacokinetics study in healthy subjects, 75-450 mg single dose, fasting (Test Example 2); set-up: species or system human (healthy male subjects); conditions: single oral, healthy male subjects
[3] = after a high-fat meal, N = 24, Mean ± SD
[4] = fasting state, N = 23, Mean ± SD

For `O=C([O-])CCCCCCCNC(=O)c1ccccc1O.[Na+]` [SNAC, sodium 8-(salicylamido)caprylate], the “AUC—% Extrap of SNAC” value ([1]; after a high-fat meal, N = 24) was 0.46 ± 0.63%, the “CLz/F of SNAC” value ([1]; after a high-fat meal, N = 24) was 198.03 ± 28.78 mL/h and the “λz of SNAC” value ([1]; after a high-fat meal, N = 24) was 0.27 ± 0.12 h⁻¹. For the same molecule, the “AUC—% Extrap of SNAC” value ([1]; fasting state, N = 23) was 0.66 ± 0.54%, the “CLz/F of SNAC” value ([1]; fasting state, N = 23) was 255.02 ± 72.16 mL/h and the “λz of SNAC” value ([1]; fasting state, N = 23) was 0.19 ± 0.08 h⁻¹. The AUC(0-t) [1, 3] was 1.54 ± 0.247 µg·h/mL, the AUC(0-inf) [1, 3] was 1.55 ± 0.245 µg·h/mL and the Cmax [1, 3] was 1.12 ± 0.574 µg/mL. For the same molecule, the MRT last [1, 3] was 2.28 ± 0.99 h, the MRT inf [1, 3] was 2.36 ± 1 h and the Vd/F [1, 3] was 0.87 ± 0.362 L. For the same molecule, the half-life [1, 3] was 3.06 ± 1.19 h, the Tmax ([1]; after a high-fat meal, N = 24, median) was 1.13 h and the AUC(0-t) [1, 4] was 1.25 ± 0.305 µg·h/mL. It also gave an AUC(0-inf) [1, 4] of 1.25 ± 0.306 µg·h/mL, a Cmax [1, 4] of 1.58 ± 0.697 µg/mL and an MRT last [1, 4] of 1.59 ± 1.35 h. For the same molecule, the MRT inf [1, 4] was 1.74 ± 1.38 h, the Vd/F [1, 4] was 1.62 ± 0.949 L and the half-life [1, 4] was 4.22 ± 1.71 h. For the same molecule, the Tmax ([1]; fasting state, N = 23, median) was 0.5 h, the “AUC—% Extrap of SNAC” value ([2]; after Formulation 5, dose group A 75 mg (equal SNAC content), N = 16, Mean ± SD) was 1.23 ± 1.12% and the Tmax ([2]; human, plasma, after Formulation 5, dose group A 75 mg (equal SNAC content), N = 16, median) was 0.38 h. It also gave an AUC(0-t) ([2]; human, plasma, after Formulation 5, dose group C 300 mg (equal SNAC content), N = 15, Mean ± SD, read-out: AUC0-t of SNAC) of 1.4 µg·h/mL.
